Data from article PMC7784547 (Bioorganic Chemistry, 2021).
“Also recorded” adds a separate entry of the source. Read-outs that look alike come from different tables or passages of the source.

Legend:
SARS-CoV-2 = conditions: read-out: IC50 against SARS-CoV-2, Full-time treatment; cited from earlier work
[1] = test system: Influenza A/Puerto Rico/8/34 (H1N1)
influenza A virus = assay type: cell-based
[2] = test system: influenza A/PR/8/34 (H1N1) virus; design: species or system KM mice; conditions: mouse, in vivo; for body weight of infected mice: po
[3] = test system: influenza virus A/PR/8/34 (H1N1)
[4] = test system: influenza A/PR/8/34 (H1N1) virus; assay type: cell-based
A/Aichi/2/68 (H3N2) = assay: microbe, parasite or virus in culture; assay type: cell-based; conditions: read-out: IC50 ± SD, H3N2
hemagglutinin (HA) = hemagglutinin (HA) (Influenza A virus, UniProt P03452)
[5] = mouse, in vivo, po, 10 mg/kg
[6] = test system: Influenza A/Puerto Rico/8/34 (H1N1); assay type: cell-based, influenza A virus
[7] = test system: A/Puerto Rico/8/34 (H1N1) influenza virus; assay type: cell-based
in vitro = conditions: dog
[8] = test system: Influenza A/Puerto Rico/8/34 (H1N1); assay: microbe, parasite or virus in culture; conditions: H1N1|PR8, MDCK, read-out: IC50 ± SD, PR8

Chain of hemagglutinin (HA) (P03452 18-342 limits assumed): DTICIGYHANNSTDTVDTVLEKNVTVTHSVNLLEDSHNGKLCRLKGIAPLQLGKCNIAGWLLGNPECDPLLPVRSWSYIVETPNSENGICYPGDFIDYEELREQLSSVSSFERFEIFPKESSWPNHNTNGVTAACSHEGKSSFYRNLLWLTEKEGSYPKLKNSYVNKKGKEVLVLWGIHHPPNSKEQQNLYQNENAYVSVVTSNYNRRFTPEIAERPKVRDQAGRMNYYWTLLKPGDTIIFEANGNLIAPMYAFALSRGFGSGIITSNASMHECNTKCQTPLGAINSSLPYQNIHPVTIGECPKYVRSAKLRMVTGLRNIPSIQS
Chain of hemagglutinin (HA) (P03452 344-565 limits assumed): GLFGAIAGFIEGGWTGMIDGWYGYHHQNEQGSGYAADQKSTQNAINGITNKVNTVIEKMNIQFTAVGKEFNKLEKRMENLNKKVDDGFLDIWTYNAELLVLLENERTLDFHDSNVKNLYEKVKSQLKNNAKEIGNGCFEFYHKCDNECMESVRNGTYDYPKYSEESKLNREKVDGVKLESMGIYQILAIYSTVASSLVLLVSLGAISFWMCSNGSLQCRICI

For CCN(CC)CCCC(C)Nc1ccnc2cc(Cl)ccc12 (centres unmarked) [chloroquine], the IC50 (SARS-CoV-2) is listed as 10 µM.

CC(C)CCC[C@@H](C)[C@H]1CC[C@H]2[C@@H]3CC=C4C[C@@H](OCC(=O)N[C@@H](CCCCN)C(=O)N[C@@H](CCCCN)C(=O)N[C@@H](Cc5c[nH]c6ccccc56)C(=O)N[C@@H](CCCCN)C(N)=O)CC[C@]4(C)[C@H]3CC[C@]12C [S-KKWK, reference compound] showed an IC50 ([1]; /Puerto Rico/8/34, 48 h) of 1.85 ± 0.92 µM.

In the case of protoporphyrin IX [PPIX], the “antiviral activity with increasing added lipids” value (influenza A virus) is reported as “decreased along with the increase of lipids”, the “survival rate and mean survival time of infected mice” value [2] is reported as “apparently prolonged; also recorded: apparently increased” and the “body weight of infected mice” value [2] is reported as “slowly increased”. The IC50 ([3]; read-out: IC50 ± SD, After infection) was > 17.8 µM, the IC50 ([3]; read-out: IC50 ± SD, During infection) was 8.87 ± 3.07 µM and the IC50 ([3]; read-out: IC50 ± SD, Pretreatment of cell) was > 17.8 µM. The IC50 ([3]; read-out: IC50 ± SD, Pretreatment of virus) was 1.88 ± 0.85 µM, the “inhibitory effect by time of addition (viral titer in supernatant)” value [4] was “better inhibitory effect” and the CC50 (Vero-E6 cells) was 120.8 ± 0.95 µM. For the same compound, the IC50 (A/Aichi/2/68 (H3N2)) was 1.49 ± 0.66 µM, the “hemagglutinin inhibition (viral adsorption to target cells)” value (hemagglutinin (HA)) was “negative results” and the “time of maximum peak of PPIX in plasma” value [5] was “about 2 h”. For the same compound, the IC50 ([1]; read-out: IC50 ± SD, PR8) was 1.88 ± 0.85 µM, the “antiviral activity with red light versus no light” value [6] was “no significant difference” and the CC50 (MDCK cells) was 230 ± 4.53 µM. The CC90 (MDCK cells) was 316 µM and the “NP expression (green fluorescence) after treatment” value [7] was “apparently decreased”.

With CCOC(=O)C1=C[C@@H](OC(CC)CC)[C@H](NC(C)=O)[C@@H](N)C1 [oseltamivir phosphate, reference compound] the “body weight of infected mice” value [2] was “slowly increased”.

Work on C=Cc1c(C)c2cc3nc(c4c5[nH]c(cc6nc(cc1[nH]2)C(C)=C6CC)c(C)c5C(=O)C4)[C@@H](CCC(=O)O)[C@@H]3C [PPa, pyropheophorbide a, reference compound] yielded a CC50 (in vitro) of 140 ± 3.61 µM, an IC50 (A/Aichi/2/68 (H3N2); Influenza A virus, H3N2, MDCK) of 1.23 ± 1.1 µM and an IC50 [8] of 0.32 ± 0.28 µM.
